Laboratory results published in the NIST ThermoML archive (doi:10.1021/acs.jced.8b00387).

Test: xn = mol fraction of the nth substance listed
Settings: for viscosity / mass density / speed of sound: 102 kPa, Liquid; for viscosity: Concentric cylinders viscometry; for mass density: Vibrating tube method; for speed of sound: Frequency=3 MHz, Single path-length method; for surface tension liquid-gas: 294 K, Pendant drop shape

CC(CC(C)(C)C)CC(C)(C)C [2,2,4,6,6-pentamethylheptane] + CCCCCCc1ccccc1
Settings | mass density [kg/m3] | speed of sound [m/s] | viscosity [mPa·s]
253.15 K, x2 = 0.1 | 784.1 | – | 3
253.15 K, x2 = 0.2065 | 795 | – | 3.03
253.15 K, x2 = 0.3009 | 804.9 | – | 3.08
253.15 K, x2 = 0.3968 | 815.2 | – | 3.19
253.15 K, x2 = 0.5001 | 826.8 | – | –
253.15 K, x2 = 0.5004 | – | – | 3.31
253.15 K, x2 = 0.6 | 838.5 | – | 3.47
253.15 K, x2 = 0.6998 | 850.5 | – | 3.7
253.15 K, x2 = 0.7997 | 863.5 | – | 3.93
253.15 K, x2 = 0.8999 | 875.7 | – | 4.2
288.15 K, x2 = 0.1 | 758.47 | 1238.9 | –
288.15 K, x2 = 0.2065 | 769.17 | 1255.2 | –
288.15 K, x2 = 0.3009 | 778.97 | 1270.3 | –
288.15 K, x2 = 0.3968 | 789.42 | 1286.2 | –
288.15 K, x2 = 0.5001 | 800.56 | – | –
288.15 K, x2 = 0.5004 | – | 1302.9 | –
288.15 K, x2 = 0.6 | 812.08 | 1320.1 | –
288.15 K, x2 = 0.6998 | 824 | 1338 | –
288.15 K, x2 = 0.7997 | 836.31 | 1356.4 | –
288.15 K, x2 = 0.8999 | 849.13 | 1375.5 | –
293.15 K, x2 = 0.1 | 754.83 | 1219 | 1.31
293.15 K, x2 = 0.2065 | 765.51 | 1235.7 | 1.31
293.15 K, x2 = 0.3009 | 775.3 | 1250.6 | 1.31
293.15 K, x2 = 0.3968 | 785.5 | 1266 | 1.35
293.15 K, x2 = 0.5001 | 796.87 | – | –
293.15 K, x2 = 0.5004 | – | 1283.3 | 1.36
293.15 K, x2 = 0.6 | 808.37 | 1300.6 | 1.4
293.15 K, x2 = 0.6998 | 820.27 | 1318.6 | 1.46
293.15 K, x2 = 0.7997 | 832.57 | 1337.1 | 1.51
293.15 K, x2 = 0.8999 | 845.36 | 1356.2 | 1.56
303.15 K, x2 = 0.1 | 747.53 | 1180 | 1.12
303.15 K, x2 = 0.2065 | 758.19 | 1197.2 | 1.13
303.15 K, x2 = 0.3009 | 767.96 | 1211.8 | 1.14
303.15 K, x2 = 0.3968 | 778.14 | 1227.4 | 1.15
303.15 K, x2 = 0.5001 | 789.48 | – | –
303.15 K, x2 = 0.5004 | – | 1244.8 | 1.17
303.15 K, x2 = 0.6 | 800.94 | 1262.2 | 1.2
303.15 K, x2 = 0.6998 | 812.8 | 1280.3 | 1.25
303.15 K, x2 = 0.7997 | 825.06 | 1299 | 1.29
303.15 K, x2 = 0.8999 | 837.82 | 1318.2 | 1.33
313.15 K, x2 = 0.1 | 740.2 | 1141.9 | 0.957
313.15 K, x2 = 0.2065 | 750.84 | 1159.3 | 0.962
313.15 K, x2 = 0.3009 | 760.6 | 1174 | 0.967
313.15 K, x2 = 0.3968 | 770.75 | 1189.7 | 0.979
313.15 K, x2 = 0.5001 | 782.06 | – | –
313.15 K, x2 = 0.5004 | – | 1207.2 | 1
313.15 K, x2 = 0.6 | 793.5 | 1224.7 | 1.02
313.15 K, x2 = 0.6998 | 805.33 | 1243 | 1.06
313.15 K, x2 = 0.7997 | 817.55 | 1261.7 | 1.09
313.15 K, x2 = 0.8999 | 830.26 | 1281 | 1.12
323.15 K, x2 = 0.1 | 732.84 | 1104.7 | 0.848
323.15 K, x2 = 0.2065 | 743.45 | 1122.2 | 0.853
323.15 K, x2 = 0.3009 | 753.21 | 1136.9 | 0.861
323.15 K, x2 = 0.3968 | 763.34 | 1152.8 | 0.873
323.15 K, x2 = 0.5001 | 774.63 | – | –
323.15 K, x2 = 0.5004 | – | 1170.4 | 0.889
323.15 K, x2 = 0.6 | 786.03 | 1188.1 | 0.911
323.15 K, x2 = 0.6998 | 797.82 | 1206.4 | 0.943
323.15 K, x2 = 0.7997 | 810.01 | 1225.2 | 0.964
323.15 K, x2 = 0.8999 | 822.68 | 1244.6 | 0.992
333.15 K, x2 = 0.1 | 725.44 | 1068.5 | 0.749
333.15 K, x2 = 0.2065 | 736.04 | 1085.8 | 0.753
333.15 K, x2 = 0.3009 | 745.77 | 1101 | 0.758
333.15 K, x2 = 0.3968 | 755.89 | 1117 | 0.768
333.15 K, x2 = 0.5001 | 767.15 | – | –
333.15 K, x2 = 0.5004 | – | 1134.6 | 0.783
333.15 K, x2 = 0.6 | 778.54 | 1152.5 | 0.803
333.15 K, x2 = 0.6998 | 790.29 | 1170.8 | 0.828
333.15 K, x2 = 0.7997 | 802.45 | 1189.6 | 0.844
333.15 K, x2 = 0.8999 | 815.08 | 1209.1 | 0.87

Settings | surface tension liquid-gas [mN/m]
x2 = 0.1 | 21.9
x2 = 0.2065 | 22.5
x2 = 0.3009 | 23.1
x2 = 0.3968 | 23.5
x2 = 0.5001 | 24.1
x2 = 0.6 | 24.7
x2 = 0.6998 | 25.5
x2 = 0.7997 | 26.5
x2 = 0.8999 | 27.7
